According to patent US12285459B2, “Saposin-A derived peptides and uses thereof” (CHILDREN'S MEDICAL CENTER CORPORATION, priority 2011, dated 2025):
Several values for one entry are separate records, joined by “and”; a condition that tells them apart may be missing. Equal values may be shown once. Non-standard residues stand in square brackets, D forms with d. Residues, ends and D or L forms follow the SMILES beside them. No end group written: not given here. PEG2000 = polyethylene glycol 2000 attached at the N-terminus

Experiments:
[1] = Peptide stability in human plasma, LC/MS; type: in vitro ADME; details: for stability in human plasma / Concentration: 800 ng/mL, 37° C.; for stability in human plasma: 1 h; for Concentration / Percent of Nominal: human plasma; for Percent of Nominal: nominal 800 ng/mL
Description: (§1) human plasma (Lot #BCE012312PM1, K3 EDTA) was obtained from BioChemed Services (Winchester, VA) and was stored at −80° C. Young adult male Swiss-Webster mice were obtained from Taconic Farms, and were anesthetized with carbon dioxide, and exsanguinated by cardiac puncture. Blood was collected in to tubes containing K2 EDTA and cooled in ice. Plasma was prepared by centrifugation for 10 min at 3000 g and 4° C. Mouse plasma and blood was used on the day of harvest.
(§2) Quenched matrix (human and mouse plasma) samples were prepared from one volume of plasma precipitated with three volumes of 9:1 acetonitrile:water at 4° C. and centrifuged for 10 min at 3000 g and 4° C., and the supernatant was used to prepare standard curve samples. A stock solution of 20 mg/mL Ac-DWLP-amide (SEQ ID NO: 133, Ac=acetyl group, amide=amide group) and 20 mg/mL Ac-dWlP-amide (SEQ ID NO: 132, DWLP with D-amino acids D and L indicated by lower case) was prepared in distilled water. Each peptide stock (20 mg/mL) was used to prepare a dilution in phosphate buffered saline (PBS) at 1 mg/mL and those samples were further diluted in PBS to prepare 100 and 50 μg/mL solutions. The 100 and 50 μg/mL solutions were added to the quenched matrix supernatant at concentrations equivalent to 0, 300, 1000, 3000, and 10000 ng/mL pre-quench plasma concentrations to prepare standard curve samples. Triplicate aliquots (100 μL) of each standard curve sample were diluted in 100 μL water prior to analysis by LC/MS.
(§3) The two peptides were formulated in PBS (40 μg/mL), and incubated with human and mouse plasma at 37° C. in polypropylene tubes at a concentration of 800 ng/mL in duplicate. Incubation aliquots (100 μL) were removed at 0, 15, 30, and 60 min and immediately quenched by the addition of 300 μL 9:1 acetonitrile:water, vortexed and centrifuged for 10 min at 3000 g and 4° C. Then 100 μL of each supernatant was diluted with 100 μL PBS prior to analysis by LC/MS.
(§4) Processed standard curve and incubation samples were analyzed using the method described in Table 1. The concentration of peptide in plasma was determined by extrapolation from the standard curve.

[2] = Peptide stability in mouse plasma, LC/MS; type: in vitro ADME, Swiss-Webster mice; details: for Concentration: 800 ng/mL, 37° C.; for Percent of Nominal: nominal 800 ng/mL
Description: as §1, §2, §3, §4

[3] = Peptide in plasma prepared from spiked mouse blood (partition into red blood cells), LC/MS; type: in vitro ADME, Swiss-Webster mice; details: for Concentration in Mouse Plasma Prepared From Mouse Blood Incubated with Each Peptide: 800 ng/mL in chilled mouse blood, plasma prepared after five minutes; for partition between plasma fraction and red blood cells: mouse blood, 800 ng/mL
Description: as §1
The two peptides were formulated as for plasma and introduced into mouse blood chilled in an ice bath at a concentration of 800 ng/mL in duplicate. Five minutes after adding to blood, plasma was prepared and duplicate aliquots were extracted (as above) and analyzed by LC/MS.
as §4

[4] = mouse, in vivo; cited from earlier work
[5] = system: primary ovarian cancer cells; experiment: Intraperitoneal metastatic ovarian cancer model, bioluminescence; type: in vivo, CB-17 SCID mice; details: 2 mg/kg QOD from day 17
Description: For metastatic ovarian cancer cell injections, 5×10^6 viable primary ovarian cancer cells were injected into CB-17 SCID mice intraperitoneally in a volume of 0.1 ml. Tumor growth was monitored by live animal bioluminescence imaging (Xenogen) once per week. For in vivo determination of the metastatic burden, mice were anaesthetized and injected intraperitoneally with 75 mg/kg of D-luciferin (100 uL of 30 mg/mL in PBS). Metastatic growth was monitored over time using bioluminescence imaging performed with mice in a supine position 5 min after D-luciferin injection with a Xenogen IVIS system coupled to Living Image acquisition and analysis software (Xenogen). For BLI plots, photon flux was calculated for each mouse by using the same circular region of interest encompassing the abdomen of the mouse.
To determine whether DWLPK (SEQ ID NO: 4) could inhibit or regress existing ovarian metastases 5×10^6 primary ovarian cancer cells were injected intraperitoneally into SCID mice. After 17 days treatment was initiated with DWLPK (SEQ ID NO: 4) at a dose of 40 mg/kg QD, cisplatin at a dose of 2 mg/kg QOD, a combination of DWLPK (SEQ ID NO: 4) and cisplatin at the same doses, or PBS (control). It was observed that DWLPK (SEQ ID NO: 4) treatment completely regressed the metastases in 11/12 after 30 days and the regressed the metastases in the remaining mice by 99% (FIG. 20).

[6] = system: Tsp-1 and p53 expression in prostate fibroblasts; experiment: Tsp-1 and p53 expression in prostate fibroblasts treated with peptides, western blot; type: cell-based; details: western blot; 10 ug/mL, 16 hours
Description: Methods of assaying the effects of a polypeptide described herein on Tsp-1 and p53 expression are described herein. Briefly, a control Psap alongside a test polypeptide, is applied to a cell culture of prostate fibroblasts. The conditioned media from PC3M-LN4 (LN4) and PC3 cells are used as controls, with PC3 as positive/stimulating control and LN4 as negative/inhibiting controls. After a period of incubation (˜16 h), the cells are harvested, rinsed, and lysed. The lysates are analyzed for the level of Tsp-1 and p53 expression by western blot analyses, with β-actin as the internal lysate protein loading control.
These peptides were used to treat prostate and lung fibroblasts in vitro at a concentration of 10 ug/mL for 16 hours in ATCC-specified media supplemented with 0.1% FBS. Tsp-1 and p53 expression was analyzed by western blot as described previously (Kang, Y., et al., (2003) Cancer Cell 3:537-549.)

[7] = system: Tsp-1 expression; details: previously shown; cited from earlier work
[8] = system: Tsp-1 and p53 expression in lungs; experiment: Tumor-free mice given PC3M-LN4 conditioned media plus peptide; Tsp-1/p53 in tissue by western blot; type: in vivo, C57Bl6 mice; details: PC3M-LN4 CM plus 30 mg/kg pegylated peptide daily, 9 days; compared with PC3 conditioned media
Description: For tumor-free analysis C57Bl6 mice were treated with 200 uL of PC3M-LN4 media alone or in combination with peptides described above at dose of 30 mg/kg/day for 5 days. After treatment the animals were sacrificed and the lungs were harvested, lysed and analyzed for Tsp-1 and p53 protein levels as described previously (Kang et al).
It was sought to determine whether there was a smaller domain within saposin A that contained the p53/Tsp-1 stimulating activity. […] C57Bl6 mice (5-6 wks old) were injected daily with 300 uL of serum free DMEM, conditioned media (CM) from non-metastatic PC3 cells, CM from metastatic PC3M-LN4 cells and PC3M-LN4 CM plus 30 mg/kg of the pegylated 6 amino acid polypeptide (PEG2000-CDWLPK (SEQ ID NO: 46)) or 30 mg/kg of the pegylated 18 amino acid polypeptide (PEG2000-[…] (SEQ ID NO: 47)). After 9 days the mice were euthanized and the lungs and livers harvested and either fixed in formalin or lysed for Western blot analysis.
Finally, the effect of substituting D-amino acids at different residues of the 4-amino acid peptide was analyzed. By Western blot analysis it was observed that substituting the first and third or second and fourth residues, in combination, had no effect on the Tsp-1 stimulating activity in vitro. These peptides were then tested in the tumor-free animal model described above. The normal 4-amino acid peptide and the D-amino acid substituted peptides were injected in combination with conditioned media from PC3M-LN4 cells in adult C57Bl6 mice for 4 days at a dose of 10 or 30 mg/kg/day via i.p. injection. Mice were sacrificed 24 hours after the treatment on day 4. The lungs of these mice were harvested and analyzed the Tsp-1 expression by Western blot analysis. […]
Methods: 18 C57Bl6 mice were injected with Ac-dWlP-amide (SEQ ID NO: 132) at a dose of 30 mg/kg in a volume of 100 μL via intraperitoneal (i.p) injections in serum starved conditioned media from PC3M-LN4 prostate cancer cells. […] The relative intensity of the Tsp-1 (normalized to β-Actin) bands were determined using a Bio-Rad Chemi-Doc XRS system.

## CC(=O)N[C@@H](CC(=O)O)C(=O)N[C@@H](Cc1c[nH]c2ccccc12)C(=O)N[C@@H](CC(C)C)C(=O)N1CCC[C@H]1C(N)=O [Ac-DWLP-amide] (Ac-DWLP-NH2)
[1]
  stability in human plasma: good stability
[1]; 0 min
  Concentration: 649 ng/mL and 784 ng/mL
  Percent of Nominal: 81.1% and 98.0%
[1]; 15 min
  Concentration: 760 ng/mL and 817 ng/mL
  Percent of Nominal: 95.0% and 102.1%
[1]; 30 min
  Concentration: 538 ng/mL and 607 ng/mL
  Percent of Nominal: 67.3% and 75.9%
[1]; 60 min
  Concentration: 634 ng/mL and 616 ng/mL
  Percent of Nominal: 79.3% and 77.0%
[2]; 0 min
  Concentration: 869 ng/mL and 955 ng/mL
  Percent of Nominal: 108.6% and 119.4%
[2]; 15 min
  Concentration: 669 ng/mL and 605 ng/mL
  Percent of Nominal: 83.6% and 75.6%
[2]; 30 min
  Concentration: 428 ng/mL and 400 ng/mL
  Percent of Nominal: 53.5% and 50.0%
[2]; 60 min
  Concentration: 398 ng/mL and 463 ng/mL
  Percent of Nominal: 49.8% and 57.9%
[3]
  Concentration in Mouse Plasma Prepared From Mouse Blood Incubated with Each Peptide: 1580 ng/mL and 1510 ng/mL and 1530 ng/mL and 1610 ng/mL
  partition between plasma fraction and red blood cells: remain primarily in the plasma fraction and do not partition into red blood cells

## CC(=O)N[C@H](CC(=O)O)C(=O)N[C@@H](Cc1c[nH]c2ccccc12)C(=O)N[C@H](CC(C)C)C(=O)N1CCC[C@H]1C(N)=O [Ac-dWlP-amide] (Ac-[dD]W[dL]P-NH2)
[1]
  stability in human plasma: stable
[1]; 0 min
  Concentration: 1050 ng/mL and 779 ng/mL
  Percent of Nominal: 131.3% and 97.4%
[1]; 15 min
  Concentration: 941 ng/mL and 875 ng/mL
  Percent of Nominal: 117.6% and 109.4%
[1]; 30 min
  Concentration: 863 ng/mL and 818 ng/mL
  Percent of Nominal: 107.9% and 102.3%
[1]; 60 min
  Concentration: 1100 ng/mL and 901 ng/mL
  Percent of Nominal: 137.5% and 112.6%
[2]; 0 min
  Concentration: 858 ng/mL and 859 ng/mL
  Percent of Nominal: 107.3% and 107.4%
[2]; 15 min
  Concentration: 520 ng/mL and 462 ng/mL
  Percent of Nominal: 65.0% and 57.8%
[2]; 30 min
  Concentration: 541 ng/mL and 496 ng/mL
  Percent of Nominal: 67.6% and 62.0%
[2]; 60 min
  Concentration: 446 ng/mL and 469 ng/mL
  Percent of Nominal: 55.8% and 58.6%
[3]
  Concentration in Mouse Plasma Prepared From Mouse Blood Incubated with Each Peptide: 1420 ng/mL and 1380 ng/mL and 1060 ng/mL and 1010 ng/mL
  partition between plasma fraction and red blood cells: remain primarily in the plasma fraction and do not partition into red blood cells

## CO[C@@H]1[C@H](OC(=O)NC(=O)CCl)CC[C@]2(CO2)[C@H]1[C@@]1(C)O[C@@H]1CC=C(C)C [TNP-470]
[4]
  development of obesity in mice: prevent diet-induced and genetic obesity
  vascularity in the adipose tissue: reduced vascularity in the adipose tissue

## N.N.[Cl][Pt][Cl] [cisplatin, reference compound]
[5]
  course of tumors under cisplatin treatment: developed resistance to cisplatin treatment after 20 days and began growing again

## CDWLPKPNMSASC (also: cyclized, mode not given here) [13-amino acid cyclized peptide spanning residues 35-47 of saposin A]
[6]
  stimulation of the expression of p53 and Tsp-1 in prostate fibroblasts: able to stimulate the expression of p53 and Tsp-1
[7]
  stimulating Tsp-1 expression in vitro and in vivo: capable of stimulating Tsp-1 expression in vitro and in vivo

## LEKTCDWLPKPNMSASCKEI
[7]
  stimulating Tsp-1 expression in vitro and in vivo: capable of stimulating Tsp-1 expression in vitro and in vivo

## PEG2000-CDWLPK
[8]
  stimulating the expression of Tsp-1 in the lung and liver: as, or more, effective than PC3 conditioned media

## PEG2000-EKTCDWLPKPNMSASCKE (cysteine pairing not given here)
[8]
  stimulating the expression of Tsp-1 in the lung and liver: as, or more, effective than PC3 conditioned media
